The record followed here is ChEMBL document CHEMBL1135457 (J Med Chem, 2002).

Bounds are passed on as bounds.

The target of assay [1] is T1, Mineralocorticoid receptor (Homo sapiens) (UniProt P08235).
T1 sequence (whole entry): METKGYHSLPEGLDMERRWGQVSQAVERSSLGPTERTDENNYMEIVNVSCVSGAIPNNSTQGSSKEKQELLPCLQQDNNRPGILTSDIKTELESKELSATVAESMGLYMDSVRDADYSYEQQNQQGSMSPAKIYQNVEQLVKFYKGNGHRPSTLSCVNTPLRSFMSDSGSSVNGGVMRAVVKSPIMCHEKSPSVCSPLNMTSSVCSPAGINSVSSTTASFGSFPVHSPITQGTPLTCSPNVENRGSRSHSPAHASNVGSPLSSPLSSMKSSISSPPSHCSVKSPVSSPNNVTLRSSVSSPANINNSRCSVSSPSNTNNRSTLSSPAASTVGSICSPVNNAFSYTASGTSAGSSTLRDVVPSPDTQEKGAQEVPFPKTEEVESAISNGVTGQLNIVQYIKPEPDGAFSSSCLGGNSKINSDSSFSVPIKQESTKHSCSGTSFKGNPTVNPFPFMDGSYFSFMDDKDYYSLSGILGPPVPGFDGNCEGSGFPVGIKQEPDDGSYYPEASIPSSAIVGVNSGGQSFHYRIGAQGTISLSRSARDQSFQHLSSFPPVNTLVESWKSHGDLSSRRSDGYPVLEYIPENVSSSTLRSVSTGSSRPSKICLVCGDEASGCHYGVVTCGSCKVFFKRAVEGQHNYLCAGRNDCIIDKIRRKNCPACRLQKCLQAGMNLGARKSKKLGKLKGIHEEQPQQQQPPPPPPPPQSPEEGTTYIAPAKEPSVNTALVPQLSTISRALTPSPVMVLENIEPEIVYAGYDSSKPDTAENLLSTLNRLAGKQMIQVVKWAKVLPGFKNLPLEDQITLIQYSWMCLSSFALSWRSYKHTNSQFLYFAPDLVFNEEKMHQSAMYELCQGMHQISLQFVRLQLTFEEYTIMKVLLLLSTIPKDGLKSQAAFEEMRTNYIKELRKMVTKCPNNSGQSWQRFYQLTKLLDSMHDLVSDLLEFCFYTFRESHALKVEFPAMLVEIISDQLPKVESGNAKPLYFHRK

The target in assay [2] is T2, Progesterone receptor (Homo sapiens) (UniProt P06401).
T2 sequence (whole entry): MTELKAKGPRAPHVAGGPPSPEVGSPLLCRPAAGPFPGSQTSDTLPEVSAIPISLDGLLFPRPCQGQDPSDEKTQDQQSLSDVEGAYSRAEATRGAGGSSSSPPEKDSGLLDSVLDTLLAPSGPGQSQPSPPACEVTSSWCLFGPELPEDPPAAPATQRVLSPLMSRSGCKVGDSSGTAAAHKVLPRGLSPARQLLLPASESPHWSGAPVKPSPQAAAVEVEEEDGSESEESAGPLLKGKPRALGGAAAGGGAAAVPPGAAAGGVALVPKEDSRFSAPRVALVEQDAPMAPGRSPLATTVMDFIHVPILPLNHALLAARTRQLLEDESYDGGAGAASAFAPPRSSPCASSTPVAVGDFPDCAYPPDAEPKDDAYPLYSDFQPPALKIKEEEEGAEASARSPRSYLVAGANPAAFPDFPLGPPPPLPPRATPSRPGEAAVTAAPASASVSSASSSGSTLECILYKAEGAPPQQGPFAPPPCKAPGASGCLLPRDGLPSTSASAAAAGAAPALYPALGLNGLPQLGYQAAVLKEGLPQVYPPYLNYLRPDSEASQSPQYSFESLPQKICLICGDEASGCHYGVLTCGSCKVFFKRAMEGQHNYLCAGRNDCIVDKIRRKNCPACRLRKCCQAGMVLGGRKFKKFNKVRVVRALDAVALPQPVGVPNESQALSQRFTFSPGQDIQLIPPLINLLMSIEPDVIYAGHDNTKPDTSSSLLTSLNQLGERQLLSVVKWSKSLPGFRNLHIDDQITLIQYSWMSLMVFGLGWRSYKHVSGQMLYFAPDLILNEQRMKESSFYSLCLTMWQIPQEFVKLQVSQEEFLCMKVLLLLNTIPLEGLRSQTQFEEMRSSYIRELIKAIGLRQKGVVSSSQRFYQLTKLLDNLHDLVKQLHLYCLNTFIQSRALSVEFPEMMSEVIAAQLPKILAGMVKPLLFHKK
Description: (§1) Antagonist activity against human Progesterone receptor by displacement of radioligand

The target of assay [3] is T2, Progesterone receptor (Homo sapiens). Nature of the assay: Displacement of 10 nM [3H]dexamethasone from human Progesterone receptor, percent inhibition at 10 uM.
The target of assay [4] is T1, Mineralocorticoid receptor (Homo sapiens). The following applies: 1 uM.
Description: Antagonist activity against human mineralocorticoid receptor as displacement of radioligand, percent inhibition at 1 uM
The next assay has as its target Estrogen receptor beta (Homo sapiens, UniProt Q92731). As to the kind of experiment: Displacement of radioligand from human ER beta.
Assay [5] has as its target T2, Progesterone receptor (Homo sapiens). The source holds these as a separate data set.
Description: as §1
The target is the same in assay [6]. This is another data set of the same source.
Description: as §1
In assay [7] the target is T1, Mineralocorticoid receptor (Homo sapiens). As to the kind of experiment: Antagonist activity against human mineralocorticoid receptor as displacement of radioligand. It is filed as functional.
Assay [8] deals with T2, Progesterone receptor (Homo sapiens). As to the kind of experiment: Antagonist activity against human Progesterone receptor.

Estrogen receptor beta, sequence (Q92731 whole entry): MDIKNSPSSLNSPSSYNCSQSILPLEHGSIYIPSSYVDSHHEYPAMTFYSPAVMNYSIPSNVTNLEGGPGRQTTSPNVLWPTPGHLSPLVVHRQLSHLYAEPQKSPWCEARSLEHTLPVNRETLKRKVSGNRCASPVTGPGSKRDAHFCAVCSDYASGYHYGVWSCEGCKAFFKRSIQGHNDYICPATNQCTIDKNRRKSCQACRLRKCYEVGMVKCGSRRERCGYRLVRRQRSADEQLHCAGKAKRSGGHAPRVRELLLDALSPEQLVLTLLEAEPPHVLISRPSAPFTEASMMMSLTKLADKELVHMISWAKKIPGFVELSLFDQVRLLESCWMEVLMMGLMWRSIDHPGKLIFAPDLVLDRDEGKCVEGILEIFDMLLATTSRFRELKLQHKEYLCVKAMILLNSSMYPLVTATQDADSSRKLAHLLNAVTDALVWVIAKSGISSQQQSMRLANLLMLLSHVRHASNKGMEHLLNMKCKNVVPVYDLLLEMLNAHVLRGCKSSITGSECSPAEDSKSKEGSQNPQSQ

Regarding `O=C1CC[C@@]2(Cc3ccccc3)c3ccc(O)cc3CC[C@@H]2C1`, the Kif in assay [1] and in assay [2] was > 1000 nM each time.
A word on the inhibition: it is the percentage by which the read-out fell short of the control. Low values mean a response near the control, high ones a response far below the control. As a reminder, the Ki is a dissociation constant, usually derived from enzyme kinetics or from competition with a known ligand. Read a high Ki as a looser hold on the target. As for `CC#C[C@]1(O)CCC2C3CCC4=CC(=O)CC[C@]4(Cc4ccc(C)cc4)C3=CC[C@@]21C` (some centres undefined), the inhibition was 30% in assay [3] and 0% in assay [4]. At Estrogen receptor beta, the Ki is > 10 µM. Also, the Kif in [5] was > 1000 nM.
Take `Oc1ccc2c(c1)CC[C@@H]1C[C@@](O)(C#CCl)CC[C@@]21Cc1ccccc1`: in assay [6], the Kif is > 1000 nM.
On to `CC#C[C@@]1(O)CC[C@@]2(Cc3ccccc3)c3ccc(O)cc3CC[C@@H]2C1`, for which the Kif in [7] and in assay [8] was > 1000 nM throughout.
